Laboratory results: ChEMBL document CHEMBL2150866, “Irreversible 4-Aminopiperidine Transglutaminase 2 Inhibitors for Huntington's Disease” (ACS Med Chem Lett, 2012)

Tested on: not listed separately
Experiment: Chemical stability of the compound in phosphate buffer at pH 7.4 assessed as GSH adduct formation after 120 hrs
Type: physicochemical
Conditions: pH 7.4, 120 h

Row | Stability | Structure (SMILES)
1 | Stable | C=CC(=O)NC1CCN(S(=O)(=O)c2ccc(C(=O)NCCc3cccc(Cl)c3)cc2)CC1

Tested on: not listed separately
Experiment: Half life in mouse plasma at 1 uM
Type: ADME, cell-free
Conditions: not given

Row | half-life at 1 µM | Structure (SMILES)
2 | > 6 h | C=CC(=O)N1CCN(S(=O)(=O)c2ccc(NC(=O)OCc3ccccc3)cc2)CC1
3 | > 6 h | C=CC(=O)NC1CCN(S(=O)(=O)c2ccc(C(=O)NCCc3cccc4c3OCC4)cc2)CC1
4 | > 6 h | C=CC(=O)NC1CCN(S(=O)(=O)c2ccc(C(=O)NCCc3cccc4c3OCO4)cc2)CC1
5 | > 6 h | C=CC(=O)NC1CCN(S(=O)(=O)c2ccc(C(=O)NCCC3CCCCC3)cc2)CC1
6 | > 6 h | C=CC(=O)NC1CCN(S(=O)(=O)c2ccc(C(=O)NC3CCCc4ccccc43)cc2)CC1 (centres undefined)
7 | > 6 h | C=CC(=O)N[C@@H]1CCCN(S(=O)(=O)c2ccc(NC(=O)OCc3ccccc3)cc2)C1
8 | > 6 h | C=CC(=O)NC1CCN(S(=O)(=O)c2ccc(C(=O)NCCC34CC5CC(CC(C5)C3)C4)cc2)CC1
9 | > 6 h | C=CC(=O)NC1CCN(S(=O)(=O)c2ccc(C(=O)NCCCc3ccccc3)cc2)CC1
10 | > 6 h | C=CC(=O)N[C@H]1CCN(S(=O)(=O)c2ccc(NC(=O)OCc3ccccc3)cc2)C1
11 | > 6 h | C=CC(=O)NC1CCN(S(=O)(=O)c2ccc(C(=O)NCCN3CCOCC3)cc2)CC1
12 | > 6 h | C=CC(=O)NC1CCN(S(=O)(=O)c2ccc(C(=O)NCc3cccc4ccccc34)cc2)CC1
13 | > 6 h | C=CC(=O)NC1CCN(S(=O)(=O)c2ccc(C(=O)NCCc3ccc(C)c(C)c3)cc2)CC1
14 | > 6 h | C=CC(=O)NC1CCN(S(=O)(=O)c2ccc(C(=O)NCCC3CCOCC3)cc2)CC1
15 | > 6 h | C=CC(=O)NC1CCN(S(=O)(=O)c2ccc(C(=O)NCCc3ccc(-c4ccccc4)cc3)cc2)CC1
16 | > 6 h | C=CC(=O)NC1CCN(S(=O)(=O)c2ccc(C(=O)NCCc3ccc(C(F)(F)F)cc3)cc2)CC1
17 | > 6 h | C=CC(=O)NC1CCN(C(=O)c2ccc(NC(=O)OCc3ccccc3)cc2)CC1
18 | > 6 h | C=CC(=O)NC1CN(S(=O)(=O)c2ccc(NC(=O)OCc3ccccc3)cc2)C1
19 | > 6 h | C=CC(=O)NC1CCN(S(=O)(=O)c2ccc(C(=O)NCCc3cccc(Cl)c3)cc2)CC1

Tested on: not listed separately
Experiment: Half life in human plasma at 1 uM
Type: ADME, cell-free
Conditions: not given

Row | half-life at 1 µM | Structure (SMILES)
20 | > 6 h | C=CC(=O)N1CCN(S(=O)(=O)c2ccc(NC(=O)OCc3ccccc3)cc2)CC1
21 | > 6 h | C=CC(=O)NC1CCN(S(=O)(=O)c2ccc(C(=O)NCCc3cccc4c3OCC4)cc2)CC1
22 | > 6 h | C=CC(=O)NC1CCN(S(=O)(=O)c2ccc(C(=O)NCCc3cccc4c3OCO4)cc2)CC1
23 | > 6 h | C=CC(=O)NC1CCN(S(=O)(=O)c2ccc(C(=O)NCCC3CCCCC3)cc2)CC1
24 | > 6 h | C=CC(=O)NC1CCN(S(=O)(=O)c2ccc(C(=O)NC3CCCc4ccccc43)cc2)CC1 (centres undefined)
25 | > 6 h | C=CC(=O)N[C@@H]1CCCN(S(=O)(=O)c2ccc(NC(=O)OCc3ccccc3)cc2)C1
26 | > 6 h | C=CC(=O)NC1CCN(S(=O)(=O)c2ccc(C(=O)NCCC34CC5CC(CC(C5)C3)C4)cc2)CC1
27 | > 6 h | C=CC(=O)NC1CCN(S(=O)(=O)c2ccc(C(=O)NCCCc3ccccc3)cc2)CC1
28 | > 6 h | C=CC(=O)N[C@H]1CCN(S(=O)(=O)c2ccc(NC(=O)OCc3ccccc3)cc2)C1
29 | > 6 h | C=CC(=O)NC1CCN(S(=O)(=O)c2ccc(C(=O)NCCN3CCOCC3)cc2)CC1
30 | > 6 h | C=CC(=O)NC1CCN(S(=O)(=O)c2ccc(C(=O)NCc3cccc4ccccc34)cc2)CC1
31 | > 6 h | C=CC(=O)NC1CCN(S(=O)(=O)c2ccc(C(=O)NCCc3ccc(C)c(C)c3)cc2)CC1
32 | > 6 h | C=CC(=O)NC1CCN(S(=O)(=O)c2ccc(C(=O)NCCC3CCOCC3)cc2)CC1
33 | > 6 h | C=CC(=O)NC1CCN(S(=O)(=O)c2ccc(C(=O)NCCc3ccc(-c4ccccc4)cc3)cc2)CC1
34 | > 6 h | C=CC(=O)NC1CCN(S(=O)(=O)c2ccc(C(=O)NCCc3ccc(C(F)(F)F)cc3)cc2)CC1
35 | > 6 h | C=CC(=O)NC1CCN(C(=O)c2ccc(NC(=O)OCc3ccccc3)cc2)CC1
36 | > 6 h | C=CC(=O)NC1CN(S(=O)(=O)c2ccc(NC(=O)OCc3ccccc3)cc2)C1
37 | > 6 h | C=CC(=O)NC1CCN(S(=O)(=O)c2ccc(C(=O)NCCc3cccc(Cl)c3)cc2)CC1

Biological target: T1, Protein-glutamine gamma-glutamyltransferase (Homo sapiens, UniProt P21980)
T1 sequence (P21980 whole entry): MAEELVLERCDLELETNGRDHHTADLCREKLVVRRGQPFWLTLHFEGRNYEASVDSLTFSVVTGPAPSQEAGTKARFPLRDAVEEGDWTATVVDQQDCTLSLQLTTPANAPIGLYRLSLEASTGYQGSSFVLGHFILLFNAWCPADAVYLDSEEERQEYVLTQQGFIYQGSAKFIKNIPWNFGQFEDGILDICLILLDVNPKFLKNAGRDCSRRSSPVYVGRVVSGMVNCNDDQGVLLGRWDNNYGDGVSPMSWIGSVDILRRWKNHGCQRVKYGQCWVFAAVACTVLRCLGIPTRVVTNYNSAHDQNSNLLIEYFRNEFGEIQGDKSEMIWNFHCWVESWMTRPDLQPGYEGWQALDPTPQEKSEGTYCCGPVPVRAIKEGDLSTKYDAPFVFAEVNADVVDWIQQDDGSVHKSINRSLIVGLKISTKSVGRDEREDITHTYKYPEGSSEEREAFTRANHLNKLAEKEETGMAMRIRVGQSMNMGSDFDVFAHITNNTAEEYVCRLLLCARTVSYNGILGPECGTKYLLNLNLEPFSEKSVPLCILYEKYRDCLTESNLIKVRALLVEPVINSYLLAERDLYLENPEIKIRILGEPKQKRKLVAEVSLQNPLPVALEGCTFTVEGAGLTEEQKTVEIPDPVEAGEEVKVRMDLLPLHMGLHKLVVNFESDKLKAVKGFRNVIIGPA
Experiment: Inhibition of human TGM2
Conditions: not given

Row | IC50 | Structure (SMILES)
38 | 260 nM | C=CC(=O)NC1CCN(S(=O)(=O)c2ccc(C(=O)NCCc3cccc4c3OCC4)cc2)CC1
39 | 280 nM | C=CC(=O)NC1CCN(S(=O)(=O)c2ccc(C(=O)NCCc3cccc4c3OCO4)cc2)CC1
40 | 140 nM | C=CC(=O)NC1CCN(S(=O)(=O)c2ccc(C(=O)NCCC3CCCCC3)cc2)CC1
41 | 320 nM | C=CC(=O)NC1CCN(S(=O)(=O)c2ccc(C(=O)NC3CCCc4ccccc43)cc2)CC1 (centres undefined)
42 | > 80000 nM | C=CC(=O)N[C@@H]1CCCN(S(=O)(=O)c2ccc(NC(=O)OCc3ccccc3)cc2)C1
43 | 660 nM | C=CC(=O)NC1CCN(S(=O)(=O)c2ccc(C(=O)NCCC34CC5CC(CC(C5)C3)C4)cc2)CC1
44 | 770 nM | C=CC(=O)NC1CCN(S(=O)(=O)c2ccc(C(=O)NCCCc3ccccc3)cc2)CC1
45 | 55000 nM | C=CC(=O)N[C@H]1CCN(S(=O)(=O)c2ccc(NC(=O)OCc3ccccc3)cc2)C1
46 | 380 nM | C=CC(=O)NC1CCN(S(=O)(=O)c2ccc(C(=O)NCCN3CCOCC3)cc2)CC1
47 | 170 nM | C=CC(=O)NC1CCN(S(=O)(=O)c2ccc(C(=O)NCc3cccc4ccccc34)cc2)CC1
48 | 180 nM | C=CC(=O)NC1CCN(S(=O)(=O)c2ccc(C(=O)NCCc3ccc(C)c(C)c3)cc2)CC1
49 | 360 nM | C=CC(=O)NC1CCN(S(=O)(=O)c2ccc(C(=O)NCCC3CCOCC3)cc2)CC1
50 | 57000 nM | C=CC(=O)NC1CCN(S(=O)(=O)c2ccc(C(=O)NCCc3ccc(-c4ccccc4)cc3)cc2)CC1
51 | 550 nM | C=CC(=O)NC1CCN(S(=O)(=O)c2ccc(C(=O)NCCc3ccc(C(F)(F)F)cc3)cc2)CC1
52 | 8900 nM | C=CC(=O)NC1CCN(C(=O)c2ccc(NC(=O)OCc3ccccc3)cc2)CC1
53 | 1600 nM | C=CC(=O)NC1CN(S(=O)(=O)c2ccc(NC(=O)OCc3ccccc3)cc2)C1
54 | 170 nM | C=CC(=O)NC1CCN(S(=O)(=O)c2ccc(C(=O)NCCc3cccc(Cl)c3)cc2)CC1
